# Experimental data reported in paper PMC5618429, “Kempopeptin C, a Novel Marine-Derived Serine Protease Inhibitor Targeting Invasive Breast Cancer” (Marine Drugs, 2017).
# What was measured:
# [1] = test system: CDCP1 cleavage in MDA-MB-231 cells; experiment: Cleavage of CDCP1 in MDA-MB-231 cells (Western blot); format: cell-based
# Experimental: The experiment was performed by treating MDA-MB-231 cells with different concentrations of either kempopeptin B (2) or C (3) for 72 h (Figure 6A). Dexamethasone (Dex) 100 nM was used as a positive control.
# Figure 6 The effect of kempopeptins B and C (2 and 3) on CDCP1 cleavage in MDA-MB-231. (A) MDA-MB-231 cells were treated for 72 h with different concentrations of the test compounds. Following 72 h, the lysates were collected and analyzed by Western blot. (B) MDA-MB-231 cells were treated at different time points with 100 µM of kempopeptin C (3). Following 6 h, 12 h and 24 h, the lysates were collected and analyzed by Western blot. Dexamethasone (Dex) was used as a positive control. (C) MDA-MB-231 cells treated for 24 h with different concentrations of 3 in the presence of 10 nM recombinant human matriptase. Cell lysates were harvested and analyzed by Western blot. (D) Densitometric analysis of the full-length, LMW of CDCP1 and actin bands in (C).
# MDA-MB-231 cells (150,000 cells/well) were seeded in 12-well plates. After 24 h, the media were replaced, and cells were treated with different concentrations of inhibitors (2 or 3; prepared in DMSO), the solvent control or the positive control dexamethasone. Whole-cell protein lysates were collected after 6, 12, 24 and 72 h using PhosphoSafe lysis buffer (Novagen, Madison, USA) and the protein concentration measured using the BCA Protein Assay kit (Pierce; 23227; Thermofisher Scientific; Waltham, MA, USA). Twenty micrograms of protein were separated by SDS-PAGE, transferred to polyvinylidene difluoride (PVDF) membranes, probed with CDCP1 antibody (Cell Signaling; 4115S) and detected with SuperSignal West Femto Maximum Sensitivity Substrate (Pierce).
# [2] = biological target: T1, recombinant human matriptase (Homo sapiens, UniProt Q9Y5Y6); experiment: Matriptase inhibition assay; format: biochemical; conditions: mean ± SD, n = 3; 15-min preincubation; read-out: IC50 against matriptase
# T1 construct: purchased R&D Systems 3946-SE-010
# T1 sequence (Q9Y5Y6 615-855 limits assumed): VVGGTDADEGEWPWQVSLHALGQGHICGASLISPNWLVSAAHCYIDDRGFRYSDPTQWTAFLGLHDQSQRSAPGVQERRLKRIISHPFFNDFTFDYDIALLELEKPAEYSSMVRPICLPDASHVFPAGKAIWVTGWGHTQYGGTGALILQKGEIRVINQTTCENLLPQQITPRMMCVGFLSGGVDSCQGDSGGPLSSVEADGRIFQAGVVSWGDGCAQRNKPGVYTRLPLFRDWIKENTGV
# Experimental: In matriptase inhibition assay, 50 µL of recombinant human matriptase (R&D Systems, Minneapolis, MN, USA; 3946-SE-010) ([…] prepared in assay buffer: 50 mM Tris, 50 mM NaCl, 0.01% Tween 20; pH 9.0) and 1 µL of different concentrations of inhibitors (2 and 3; half log dilutions prepared in DMSO) or the solvent control were pre-incubated at room temperature for 15 min. Following the incubation period, 50 µL of the 50 µM substrate solution (Boc-Gln-Ala-Arg-AMC) (R&D Systems, Minneapolis, MN, USA; ES014) were added to each well, and the enzyme activity was monitored by measuring the increase in fluorescence signal from the fluorescently-labeled substrate every 30 s for 30 min (Ex 380 nm, Em 460 nm) using the SpectraMax M5 plate reader (Molecular Devices).
smiles,measurement,setting,value
"CCCC(=O)NC(C(=O)NC1C(=O)NC(CCCCN)C(=O)NC2CCC(O)N(C2=O)C(C(C)CC)C(=O)N(C)C(Cc2ccc(OC)c(Cl)c2)C(=O)NC(C(C)C)C(=O)OC1C)C(C)C (stereo not drawn) [Kempopeptin C, kempopeptin C]",Inhibition of CDCP1 cleavage in MDA-MB-231,"[1]; 100 µM, 6, 12 and 24 h",no inhibition of CDCP1 cleavage was detected
same,Inhibition of CDCP1 cleavage in MDA-MB-231,"[1]; 72 h, different concentrations",No inhibition of CDCP1 cleavage was observed
same,IC50,[2],280 ± 30 nM
